Measurements as given in patent publication US10125097B2, “1- [1-(benzoyl)-pyrrolidine-2-carbonyl]-pyrrolidine-2-carbonitrile derivatives” (UNIVERSITAT DE BARCELONA, priority 2012, dated 2018).
pIC50: −log10 of the molar value. Read-outs that look alike come from different tables or passages of the source.

Columns and labels:
[1] = biological target: human prolyl oligopeptidase (Homo sapiens (Human), UniProt P48147); experiment: POP inhibition assay (Z-G-P-AMC substrate, fluorimetric); format: biochemical
human prolyl oligopeptidase, sequence (P48147 whole entry): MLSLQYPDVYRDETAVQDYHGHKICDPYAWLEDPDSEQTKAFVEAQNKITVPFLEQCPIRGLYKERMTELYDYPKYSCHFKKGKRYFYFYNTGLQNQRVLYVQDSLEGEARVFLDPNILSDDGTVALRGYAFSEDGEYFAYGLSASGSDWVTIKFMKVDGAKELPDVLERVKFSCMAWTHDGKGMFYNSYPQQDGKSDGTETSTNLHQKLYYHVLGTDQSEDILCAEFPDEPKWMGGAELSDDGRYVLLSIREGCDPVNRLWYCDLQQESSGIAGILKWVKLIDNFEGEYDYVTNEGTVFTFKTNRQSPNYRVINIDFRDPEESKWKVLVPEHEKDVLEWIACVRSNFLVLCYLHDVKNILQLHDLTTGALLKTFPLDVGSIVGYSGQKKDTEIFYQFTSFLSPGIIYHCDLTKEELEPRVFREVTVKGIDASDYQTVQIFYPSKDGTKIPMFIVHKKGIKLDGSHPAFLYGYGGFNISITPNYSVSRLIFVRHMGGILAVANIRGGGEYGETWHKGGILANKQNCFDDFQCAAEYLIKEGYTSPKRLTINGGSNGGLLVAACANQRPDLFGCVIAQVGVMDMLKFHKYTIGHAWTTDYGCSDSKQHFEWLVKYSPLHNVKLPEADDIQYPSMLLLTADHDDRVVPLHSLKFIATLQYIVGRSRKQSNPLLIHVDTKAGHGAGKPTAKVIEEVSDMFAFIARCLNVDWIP
Description: Expression and Purification of Prolyl Oligopeptidase (POP)
POP was obtained by expression in E. coli and affinity purification using a His tail fusion according to a literature procedure (Tarragó T et al., ChemBioChem 2006; 7:827-33) summarized below:
hPOP expression: E. coli BL21 competent cells were transformed with pETM10 hPOP. To induce expression, a pre-culture of LB medium (50 mL) containing kanamycin (50 μg/mL) was inoculated with one colony and was grown overnight at 37° C. Next day, two cultures of LB medium (500 mL) were inoculated with the overnight culture (10 mL). The inoculated cultures were grown at 37° C. and 220 rpm until the OD595 was 1.2 (2.5-3 hours). IPTG was then added (final concentration of 1 mM) and induction was performed overnight at 25° C. Cells were harvested (3500 g, 15 min, 4° C.) and the pellet was suspended in suspension buffer (50 mL) [Tris-HCl pH 8 (50 mM), NaCl (300 mM), imidazole (1 mM)] and sonicated with use of four cycles (each consisting of 15 sec of sonication and 15 sec of rest) at an intensity of 50% and 0.5 pulses, the sample being kept on ice. After sonication, the sample was centrifuged (40 000 g, 30 min, 4° C.) and the supernatant was used immediately for POP purification. An ÁKTA explorer FPLC system was used for purification. The supernatant was applied at a flow of 1 mL/min to a HiTrapQuelating column (5 mL) previously equilibrated with 5 column volumes of suspension buffer. The column was washed with suspension buffer until the absorbance at 280 nm returned to basal level. The column was then rinsed with 5 volumes of washing buffer (50 mM Tris-HCl, pH 8, 300 mM NaCl, 30 mM imidazole). The elution was performed with 4 volumes of elution buffer (50 mM Tris-HCl, pH 8, 300 mM NaCl, 500 mM imidazole). Fractions (4 mL) were collected during the entire elution. POP activity was checked in all fractions and positive ones were analyzed by SDS-PAGE and stained with Biosafe Comassie Stain G-250. Positive fractions were collected and desalted by use of a HiPrep 26/10 Desalting column with Tris-HCl (50 mM, pH 8) as buffer. Recombinant hPOP was quantified with the Bio-Rad Protein Assay with BSA as standard. Aliquots of the recombinant enzyme were prepared and immediately frozen with liquid nitrogen and stored at −80° C.
POP activity was determined following the method described by Toide et al (Toide K et al., J. Pharmacol. Exp. Ther. 1995; 274:1370-8), using Z-G-P-AMC (N-benzyloxycarbonyl-Gly-Pro-methylcoumarinyl-7-amide) as POP substrate. The reactions were performed in 96-well microtiter plates, which allowed simultaneous monitoring of multiple reactions. For each reaction, activity buffer (134 μl, 100 mM Na/K phosphate buffer, pH 8.0) was pre-incubated for 15 min at 37° C. with hPOP (ranging from 20 to 60 nM, depending on the activity of the hPOP batch) and the corresponding new compound solution (3 μl). A stock solution of new compound was prepared in DMSO (100 mM), and dilutions were prepared from this stock solution with DMSO. Alternatively, the reactions were performed using another activity buffer (141 μL, 100 mM Tris-acetate, […], 1 mM DTT, pH 7.3), pre-incubating with hPOP (10 nM) and the corresponding new compound solution (3 μl) (Conditions B).
After preincubation, Z-G-P-AMC (10 μl, 3 mM in 40% 1,4-dioxane) was added (3 μl, 1.5 mM in 40% of 1,4-dioxane, in Conditions B), and the reaction was incubated for 1 hour at 37° C. The reaction was stopped by adding sodium acetate (150 μl, 1 M, pH 4) and the formation of AMC was measured fluorimetrically. The excitation and emission wavelengths were 360/40 and 485/20 nm, respectively.
Several concentration points (ranging from 25 μM to 400 μM) were measured for each compound. The inhibitory activity on prolyl oligopeptidase was calculated according to eq 1. For each new compound, the fluorescence in the presence (a) and in the absence of hPOP (b) was measured. […]

[2] = Parallel artificial membrane permeability assay (PAMPA); format: in vitro ADME; settings: 200 μM initial concentration, pH 7.4, 4 hours, room temperature; for Papp at 4 h, 200 μM: PAMPA, read-out: Effective permeability Pe
Description: Parallel artificial membrane permeability assay (PAMPA) described in Kansy M et al., J. Med. Chem. 1998; 41(7):1007-10 was used to determine the capacity of compounds to cross the Blood-Brain Barrier (BBB) by passive diffusion (Di L et al., Eur. J. Med. Chem. 2003; 38(3):223-32). The effective permeability (Pe) of the compounds was measured at an initial concentration of 200 μM. The buffer solution was prepared from a commercial concentrated one following the manufacturer's instructions. pH was adjusted to 7.4 using a 0.5 M NaOH solution. A stock solution of new compound was prepared in DMSO and diluted with buffer solution to a final 200 μM concentration (0.5% DMSO content). The PAMPA sandwich was separated and each donor well was filled with 200 μL of the compound solution. The acceptor plate was placed into the donor plate, ensuring that the underside of the membrane was in contact with buffer. 4 μL of the mixture of phospholipids (20 mg/mL) in dodecane was added to the filter of each well, and 200 μL of buffer solution was added to the each acceptor well. The plate was covered and incubated at room temperature in a saturated humidity atmosphere for 4 hours under orbital agitation at 100 rpm. After 4 hours, the contents of the acceptor and donor compartments were analyzed by HPLC: 150 μL of each well from the donor plate and 150 μL of each well from the acceptor plate were transferred to HPLC vials, injecting each sample into a reverse-phase C18 column (150 mm×4.6 mm×5 μm, 100 Å) (100 μL/injection from the acceptor wells, 10 μL/injection from the donor wells and for t0 references). Transport was also confirmed by MALDI-TOF spectrometry.
The phospholipid mixture used was a porcine polar brain lipid extract, provided by Avanti polar lipids, with the following composition: 12.6% phosphatidylcholine (PC), 33.1% phosphatidylethanolamine (PE), 18.5% phosphatidylserine (PS), 4.1% phosphatidylinositol (PI), 0.8% phosphatidic acid and 30.9% of other compounds.
The effective permeability (Pe) after 4 hours was calculated using equation 2 and the percentage of transport was calculated using equation 3:
[formula] wherein: t is time (h) CA(t) is the compound concentration in the acceptor well at time t and CD(to) is the compound concentration in the donor well at to.

[3] = 100 mM Na/K phosphate buffer, pH 8.0, hPOP 20 to 60 nM, Z-G-P-AMC, 1 hour at 37° C., read-out: IC50, inhibition of human prolyl oligopeptidase
[4] = Conditions B: 100 mM Tris-acetate, 10 mM BSA, 1 mM DTT, pH 7.3, hPOP 10 nM, read-out: IC50, inhibition of human prolyl oligopeptidase, measured in conditions B

Row | Compound | pIC50 [1, 3] | % T (percentage of transport) [2] [%] | Papp at 4 h, 200 μM [2] [×10⁻⁶ cm/s] | pIC50 [1, 4]
1 | COc1cc(C(=O)N2C[C@H](OC)C[C@H]2C(=O)N2CCC[C@H]2C#N)cc(OC)c1OCc1ccccc1 [Example 1, (S)-1-((2S,4R)-1-(4-(benzyloxy)-3,5-dimethoxybenzoyl)-4-methoxypyrrolidine-2-carbonyl)pyrrolidine-2-carbonitrile] | 7.20 | 4.3 | 1 | –
2 | COc1cc(C(=O)N2C[C@H](F)C[C@H]2C(=O)N2CCC[C@H]2C#N)cc(OC)c1OCc1ccccc1 [Example 2, (S)-1-((2S,4R)-1-(4-(benzyloxy)-3,5-dimethoxybenzoyl)-4-fluoropyrrolidine-2-carbonyl)pyrrolidine-2-carbonitrile] | 7.22 | 13.03 | 7.28 | –
3 | COc1cc(C(=O)N2C[C@H](c3ccccc3)C[C@H]2C(=O)N2CCC[C@H]2C#N)cc(OC)c1OCc1ccccc1 [Example 3, (S)-1-((2S,4S)-1-(4-(benzyloxy)-3,5-dimethoxybenzoyl)-4-phenylpyrrolidine-2-carbonyl)pyrrolidine-2-carbonitrile] | 6.47 | 5.72 | 2.89 | –
4 | COc1cc(C(=O)N2C[C@@H](SC)C[C@H]2C(=O)N2CCC[C@H]2C#N)cc(OC)c1OCc1ccccc1 [Example 5, (S)-1-((2S,4S)-1-(4-(benzyloxy)-3,5-dimethoxybenzoyl)-4-(methythio)pyrrolidine-2-carbonyl)pyrrolidine-2-carbonitrile] | 6.75 | 17.03 | 9.98 | –
5 | COc1cc(C(=O)N2C[C@@H](C)C[C@H]2C(=O)N2CCC[C@H]2C#N)cc(OC)c1OCc1ccccc1 [Example 6, (S)-1-((2S,4S)-1-(4-(benzyloxy)-3,5-dimethoxybenzoyl)-4-methylpyrrolidine-2-carbonyl)pyrrolidine-2-carbonitrile] | – | 14.76 | 3.79 | 7.88
6 | COc1cc(C(=O)N2C[C@H](OC(C)(C)C)C[C@H]2C(=O)N2CCC[C@H]2C#N)cc(OC)c1OCc1ccccc1 [Example 9, (S)-1-((2S,4R)-1-(4-(benzyloxy)-3,5-dimethoxybenzoyl)-4-(tert-butoxy)pyrrolidine-2-carbonyl)pyrrolidine-2-carbonitrile] | 6.18 | – | – | –
7 | COc1cc(C(=O)N2CC(F)(F)C[C@H]2C(=O)N2CCC[C@H]2C#N)cc(OC)c1OC(C)=O [Example 11, (S)-1-((2S)-1-(4-acetoxy-3,5-dimethoxybenzoyl)-4,4-difluoropyrrolidine-2-carbonyl)pyrrolidine-2-carbonitrile] | 6.45 | – | – | –
8 | COc1cc(C(=O)N2CC(F)(F)C[C@H]2C(=O)N2CCC[C@H]2C#N)cc(OC(C)=O)c1OC [Example 15, (S)-1-((2S)-1-(3-acetoxy-4,5-dimethoxybenzoyl)-4,4-difluoropyrrolidine-2-carbonyl)pyrrolidine-2-carbonitrile] | 5.25 | – | – | –

The remaining lines, values ahead:

Row | pIC50 [1, 3] | % T (percentage of transport) [2] [%] | Papp at 4 h, 200 μM [2] [×10⁻⁶ cm/s] | pIC50 [1, 4] | Compound
9 | 6.75 | 19.27 | 5.07 | – | COc1cc(C(=O)N2C[C@@H](C(F)(F)F)C[C@H]2C(=O)N2CCC[C@H]2C#N)cc(OC)c1OCc1ccccc1 [Example 8, (S)-1-((2S,4S)-1-(4-(benzyloxy)-3,5-dimethoxybenzoyl)-4-(trifluoromethyl)-pyrrolidine-2-carbonyl)pyrrolidine-2-carbonitrile]
10 | 6.95 | 8.47 | 2.1 | – | COc1cc(C(=O)N2CC(F)(F)C[C@H]2C(=O)N2CCC[C@H]2C#N)cc(OC)c1OC(=O)c1ccccc1 [Example 12, (S)-1-((2S)-1-(4-benzoyloxy-3,5-dimethoxybenzoyl)-4,4-difluoropyrrolidine-2-carbonyl)pyrrolidine-2-carbonitrile]
11 | 6.47 | – | – | – | COc1cc(C(=O)N2CC(F)(F)C[C@H]2C(=O)N2CCC[C@H]2C#N)cc(OCc2ccccc2)c1OCc1ccccc1 [Example 13, (S)-1-((2S)-1-(3,4-dibenzyloxy-5-methoxybenzoyl)-4,4-difluoropyrrolidine-2-carbonyl)pyrrolidine-2-carbonitrile]
12 | 5.67 | 19.08 | 5.02 | – | COc1cc(C(=O)N2CC(F)(F)C[C@H]2C(=O)N2CCC[C@H]2C#N)cc(OC(=O)C(C)(C)C)c1OC [Example 16, (S)-1-((2S)-1-(3-pivaloyloxy-4,5-dimethoxybenzoyl)-4,4-difluoropyrrolidine-2-carbonyl)pyrrolidine-2-carbonitrile]
13 | – | 14.12 | 8.04 | 6.54 | N#C[C@@H]1CCCN1C(=O)[C@@H]1CC(F)(F)CN1C(=O)c1ccc(OCc2ccccc2)cc1 [Example 17, (S)-1-((S)-1-(4-(benzyloxy)benzoyl)-4,4-difluoropyrrolidine-2-carbonyl)pyrrolidine-2-carbonitrile]
14 | – | 11.91 | 6.51 | 6.31 | N#C[C@@H]1CCCN1C(=O)[C@@H]1CC(F)(F)CN1C(=O)c1cccc(OCc2ccccc2)c1 [Example 18, (S)-1-((S)-1-(3-(benzyloxy)benzoyl)-4,4-difluoropyrrolidine-2-carbonyl)pyrrolidine-2-carbonitrile]
15 | – | 17.55 | 10.3 | 6.59 | N#C[C@@H]1CCCN1C(=O)[C@@H]1CC(F)(F)CN1C(=O)c1ccccc1OCc1ccccc1 [Example 19, (S)-1-((S)-1-(2-(benzyloxy)benzoyl)-4,4-difluoropyrrolidine-2-carbonyl)pyrrolidine-2-carbonitrile]
